Source: ChEMBL document CHEMBL1154885, “Heat shock protein 90: inhibitors in clinical trials” (J Med Chem, 2010)

Legend:
[1] = Cmax in plasma of mouse bearing human A2780 cells at 80 mg/kg, ip administered as DMSO/egg phospholipid formulation; assay type: ADME, organism-based; design: dose 80 mg/kg, route intraperitoneal
[2] = Cmax in tumor of mouse bearing human A2780 cells at 80 mg/kg, ip administered as DMSO/egg phospholipid formulation; assay type: ADME, organism-based, Neoplasm; design: dose 80 mg/kg, route intraperitoneal; conditions: read-out: Cmax_tumor
[3] = Cmax in liver of mouse bearing human A2780 cells at 80 mg/kg, ip administered as DMSO/egg phospholipid formulation; assay type: ADME, organism-based; design: dose 80 mg/kg, route intraperitoneal
[4] = AUC in plasma of mouse bearing human A2780 cells at 80 mg/kg, ip administered as DMSO/egg phospholipid formulation; assay type: ADME, organism-based; design: dose 80 mg/kg, route intraperitoneal
[5] = AUC in tumor of mouse bearing human A2780 cells at 80 mg/kg, ip administered as DMSO/egg phospholipid formulation; assay type: ADME, organism-based, Neoplasm; design: dose 80 mg/kg, route intraperitoneal
[6] = AUC in liver of mouse bearing human A2780 cells at 80 mg/kg, ip administered as DMSO/egg phospholipid formulation; assay type: ADME, organism-based; design: dose 80 mg/kg, route intraperitoneal
[7] = tested on: Plasma; experiment: Apparent volume of distribution in plasma of mouse bearing human A2780 cells at 80 mg/kg, ip administered as DMSO/egg phospholipid formulation; assay type: ADME, organism-based; design: dose 80 mg/kg, route intraperitoneal; conditions: in vivo
[8] = Apparent volume of distribution in tumor of mouse bearing human A2780 cells at 80 mg/kg, ip administered as DMSO/egg phospholipid formulation; assay type: ADME, organism-based, Neoplasm; design: dose 80 mg/kg, route intraperitoneal; conditions: in vivo
[9] = tested on: Liver; experiment: Apparent volume of distribution in liver of mouse bearing human A2780 cells at 80 mg/kg, ip administered as DMSO/egg phospholipid formulation; assay type: ADME, organism-based; design: dose 80 mg/kg, route intraperitoneal; conditions: in vivo
[10] = Clearance in plasma of mouse bearing human A2780 cells at 80 mg/kg, ip administered as DMSO/egg phospholipid formulation; assay type: ADME, organism-based; design: dose 80 mg/kg, route intraperitoneal
[11] = Clearance in tumor of mouse bearing human A2780 cells at 80 mg/kg, ip administered as DMSO/egg phospholipid formulation; assay type: ADME, organism-based, Neoplasm; design: dose 80 mg/kg, route intraperitoneal; conditions: in vivo
[12] = tested on: Liver; experiment: Clearance in liver of mouse bearing human A2780 cells at 80 mg/kg, ip administered as DMSO/egg phospholipid formulation; assay type: ADME, organism-based; design: dose 80 mg/kg, route intraperitoneal; conditions: in vivo
[13] = Half life in plasma of mouse bearing human A2780 cells at 80 mg/kg, ip administered as DMSO/egg phospholipid formulation; assay type: ADME, organism-based; design: dose 80 mg/kg, route intraperitoneal
[14] = Half life in tumor of mouse bearing human A2780 cells at 80 mg/kg, ip administered as DMSO/egg phospholipid formulation; assay type: ADME, organism-based, Neoplasm; design: dose 80 mg/kg, route intraperitoneal
[15] = Half life in liver of mouse bearing human A2780 cells at 80 mg/kg, ip administered as DMSO/egg phospholipid formulation; assay type: ADME, organism-based; design: dose 80 mg/kg, route intraperitoneal
[16] = Cmax in human at 220 mg/m2 administered as DMSO/egg phospholipid formulation; assay type: ADME, organism-based; conditions: in vivo
[17] = Tmax in human at 220 mg/m2 administered as DMSO/egg phospholipid formulation; assay type: ADME, organism-based; conditions: in vivo
[18] = Half life in human at 220 mg/m2 administered as DMSO/egg phospholipid formulation; assay type: ADME, organism-based; conditions: in vivo
[19] = AUC in human at 220 mg/m2 administered as DMSO/egg phospholipid formulation; assay type: ADME, organism-based; conditions: plasma
[20] = Volume of distribution at steady state in human at 220 mg/m2 administered as DMSO/egg phospholipid formulation; assay type: ADME, organism-based; conditions: in vivo, read-out: Vdss
[21] = target: T1, Heat shock protein HSP 90-beta (Homo sapiens, UniProt P08238)
Description: Binding affinity to HSP90 under non-reducing conditions in absence of TECP

[22] = target: T1, Heat shock protein HSP 90-beta; remark: listed apart in the source
Description: Inhibition of HSP90-mediated client protein HER2 degradation in human MCF7 cells

[23] = target: T1, Heat shock protein HSP 90-beta; remark: listed apart in the source
Description: (§1) Inhibition of HSP90-mediated client protein HER2 degradation

[24] = target: T1, Heat shock protein HSP 90-beta; remark: listed apart in the source
Description: Binding affinity to HSP90 under reducing conditions in presence of TECP

[25] = target: T1, Heat shock protein HSP 90-beta; remark: listed apart in the source
Description: as §1

T1 sequence (P08238 whole entry): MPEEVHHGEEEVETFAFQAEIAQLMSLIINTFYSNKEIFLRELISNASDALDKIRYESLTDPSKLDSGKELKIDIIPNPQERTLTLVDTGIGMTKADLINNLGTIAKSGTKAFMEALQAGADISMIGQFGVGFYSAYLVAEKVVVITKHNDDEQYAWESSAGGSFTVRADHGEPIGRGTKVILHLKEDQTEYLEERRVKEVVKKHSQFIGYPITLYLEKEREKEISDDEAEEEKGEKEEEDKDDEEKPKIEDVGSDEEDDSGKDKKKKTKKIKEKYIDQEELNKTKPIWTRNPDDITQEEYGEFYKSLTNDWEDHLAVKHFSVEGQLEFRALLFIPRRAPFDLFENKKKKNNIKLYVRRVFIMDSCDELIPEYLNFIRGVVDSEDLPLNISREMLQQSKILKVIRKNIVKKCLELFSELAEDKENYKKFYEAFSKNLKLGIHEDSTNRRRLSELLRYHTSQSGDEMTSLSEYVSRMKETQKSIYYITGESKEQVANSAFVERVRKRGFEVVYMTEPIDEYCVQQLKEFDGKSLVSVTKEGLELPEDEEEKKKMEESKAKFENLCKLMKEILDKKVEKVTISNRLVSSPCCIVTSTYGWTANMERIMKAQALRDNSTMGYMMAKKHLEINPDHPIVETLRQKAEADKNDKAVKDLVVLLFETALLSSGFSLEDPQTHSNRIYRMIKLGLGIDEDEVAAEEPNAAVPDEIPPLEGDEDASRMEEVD

Work on `CO[C@H]1/C=C\C=C(/C)C(=O)NC2=CC(=O)C(N)=C(C[C@@H](C)C[C@H](OC)[C@H](O)[C@@H](C)/C=C(\C)[C@@H]1OC(N)=O)C2=O` yielded a Cmax [1] of 4.8 µM, a Cmax [2] of 3.5 µM and a Cmax [3] of 18 µM. It also gave an AUC [4] of 15 µM·h, an AUC [5] of 43 µM·h and an AUC [6] of 59 µM·h. The Vz [7] was 0.18 L, the Vz [8] was 0.49 L and the Vz [9] was 0.06 L. The CL/F [10] was 1.83 mL/min, the CL [11] was 0.03 L/h and the CL [12] was 0.02 L/h. For the same molecule, the half-life [13] was 1.2 h, the half-life [14] was 13.7 h and the half-life [15] was 1.8 h. The Cmax [16] was 3 µM, the Tmax [17] was 1.7 h and the half-life [18] was 6.9 h. For the same molecule, the AUC [19] was 21 µM·h, the Vd [20] was 230 L and the Ki [21] was 21 nM. It also gave an IC50 [22] of 12 nM, an IC50 [23] of 7 nM and a Ki [24] of 3 nM.

Work on `C#CCCCn1c(Sc2cc3c(cc2Br)OCO3)nc2c(N)ncnc21` yielded an Activity [25] of 30 nM.

In the case of `CCCCn1c(Cc2ccc(OC)c(OC)c2OC)nc2c(N)ncnc21`, the Activity [25] is reported as 40000 nM.

`CCOP(=O)(CCn1c(Sc2nc3cccc(Cl)c3s2)nc2c(N)ncnc21)OCC` gave an Activity [25] of 30 nM.

With `COc1ccc(I)c(Sc2nc3c(N)ncnc3n2CCNCC(C)(C)C)c1` the Activity [25] was 30 nM.
